Assay results as given in patent US6350741B1, “Inhibitors of interleukin-1β converting enzyme” (Vertex Pharmaceutical, Inc., priority 1996, dated 2002).

Assays:
[1] = test system: IL-1β production in human whole blood; assay: Whole blood assay for IL-1β production; assay type: cell-based; conditions: LPS-stimulated human whole blood, IL-1β by ELISA
Experimental: Whole Blood Assay for IL-1β Production
The whole blood assay is a simple method for measuring the production of IL-1β (or other cytokines) and the activity of potential inhibitors. The complexity of this assay system, with its full complement of lymphoid and inflammatory cell types, spectrum of plasma proteins and red blood cells is an ideal in vitro representation of human in vivo physiologic conditions.
Set incubator or water bath at 30° C. Aliquot 0.25 ml of blood into 1.5 ml eppendorf tubes. Note: be sure to invert the whole blood sample tubes after every two aliquots. Differences in replicates may result if the cells sediment and are not uniformly suspended. Use of a positive displacement pipette will also minimize differences between replicate aliquots.
Prepare drug dilutions in sterile pyrogen-free saline by serial dilution. A dilution series which brackets the apparent Ki for a test compound determined in an ICE inhibition assay is generally used for the primary compound screen. For extremely hydrophobic compounds, prepare compound dilutions in fresh plasma obtained from the same blood donor or in PBS-containing 5% DMSO to enhance solubility.
Add 25 μl test compound dilution or vehicle control and gently mix the sample. Then add 5.0 μl LPS solution (250 ng/ml stocked prepared fresh: 5.0 ng/ml final concentration LPS), and mix again. Incubate the tubes at […] in a water bath for 16-18 hr with occasional mixing. Alternatively, the tubes can be placed in a rotator set at 4 rpm for the same incubation period. This assay should be set up in duplicate or triplicate with the following controls: negative control—no LPS; positive control—no test inhibitor; vehicle control—the highest concentration of DMSO or compound solvent used in the experiment. Additional saline is added to all control tubes to normalize volumes for both control and experimental whole blood test samples.
After the incubation period, whole blood samples are centrifuged for 10 minutes at ˜2000 rpm in the microfuge, plasma is transferred to a fresh microfuge tube and centrifuged at 1000×g to pellet residual platelets if necessary. Plasma samples may be stored frozen at −70° C. prior to assay for cytokine levels by ELISA.
R & D Systems (614 McKinley Place N.E. Minneapolis, Minn. 55413) Quantikine kits may be used for measurement of IL-1β and TNF-α. The assays are performed according to the manufacturer's directions. IL-1β levels of ˜1-5 ng/ml in positive controls among a range of individuals may be observed. A 1:200 dilution of plasma for all samples is usually sufficient for experiments for ELISA results to fall on the linear range of the ELISA standard curves. It may be necessary to optimize standard dilutions if you observe differences in the whole blood assay. Nerad, J. L. et al., J. Leukocyte Biol., 52, pp. 687-692 (1992).

ICE = target: T1, ICE (Homo sapiens, UniProt P29466); assay: Enzyme assay with UV-visible substrate (ICE inhibition); assay type: biochemical; conditions: Succinyl-Tyr-Val-Ala-Asp-p-Nitroanilide substrate
T1 sequence (P29466 120-297 limits assumed): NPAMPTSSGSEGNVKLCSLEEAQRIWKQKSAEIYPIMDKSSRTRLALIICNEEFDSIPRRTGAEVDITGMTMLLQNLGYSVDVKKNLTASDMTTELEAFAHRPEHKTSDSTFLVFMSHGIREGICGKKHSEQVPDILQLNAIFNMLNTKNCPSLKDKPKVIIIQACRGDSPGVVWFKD
T1 sequence (P29466 317-404 limits assumed): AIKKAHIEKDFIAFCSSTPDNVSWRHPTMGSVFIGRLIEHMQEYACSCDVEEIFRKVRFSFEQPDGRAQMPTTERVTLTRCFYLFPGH
Experimental: 1. Enzyme Assay with UV-visible Substrate
This assay is run using an Succinyl-Tyr-Val-Ala-Asp-p-Nitroanilide substrate. Synthesis of analogous substrates is described by L. A. Reiter (Int. J. Peptide Protein Res., 43, pp. 87-96 (1994)). The assay mixture contains:
65 μl buffer (10 mM Tris, 1 mM DTT, 0.1% CHAPS @ pH 8.1)
10 μl ICE (50 nM final concentration to give a rate of ˜1 mOD/min)
5 μl DMSO/Inhibitor mixture
20 μl 400 μM Substrate (80 μM final concentration)
100 μl total reaction volume
The visible ICE assay is run in a 96-well microtiter plate. Buffer, ICE and DMSO (if inhibitor is present) are added to the wells in the order listed. The components are left to incubate at room temperature for 15 minutes starting at the time that all components are present in all wells. The microtiter plate reader is set to incubate at 37° C. After the 15 minute incubation, substrate is added directly to the wells and the reaction is monitored by following the release of the chromophore (pNA) at 405-603 nm at 37° C. for 20 minutes. A linear fit of the data is performed and the rate is calculated in mOD/min. DMSO is only present during experiments involving inhibitors, buffer is used to make up the volume to 100 μl in the other experiments.
For determination of enzyme inhibition constants (Ki) or the mode of inhibition (competitive, uncompetitive or noncompetitive), the rate data determined in the enzyme assays at varying inhibitor concentrations are computer-fit to standard enzyme kinetic equations (see I. H. Segel, Enzyme Kinetics, Wiley-Interscience, 1975).

[2] = test system: mature IL-1β in human PBMC; assay: PBMC cell assay (IL-1β assay with human peripheral blood mononuclear cells); assay type: cell-based; conditions: LPS-stimulated human PBMC, mature IL-1β by ELISA
Description: IL-1β Assay with a Mixed Population of Human Peripheral Blood Mononuclear Cells (PBMC) or Enriched Adherent Mononuclear Cells
Processing of pre-IL-1β by ICE can be measured in cell culture using a variety of cell sources. Human PBMC obtained from healthy donors provides a mixed population of lymphocyte subtypes and mononuclear cells that produce a spectrum of interleukins and cytokines in response to many classes of physiological stimulators. Adherent mononuclear cells from PBMC provides an enriched source of normal monocytes for selective studies of cytokine production by activated cells.
An initial dilution series of test compound in DMSO or ethanol is prepared, with a subsequent dilution into RPMI-10% FBS media (containing 2 mM L-glutamine, 10 mM HEPES, 50 U and 50 ug/ml pen/strep) respectively to yield drugs at 4×the final test concentration containing 0.4% DMSO or 0.4% ethanol. The final concentration of DMSO is 0.1% for all drug dilutions. A concentration titration which brackets the apparent Ki for a test compound determined in an ICE inhibition assay is generally used for the primary compound screen.
Generally 5-6 compound dilutions are tested and the cellular component of the assay is performed in duplicate, with duplicate ELISA determinations on each cell culture supernatant.
Buffy coat cells isolated from one pint human blood (yielding 40-45 ml final volume plasma plus cells) are diluted with media to 80 ml and LeukoPREP separation tubes (Becton Dickinson) are each overlaid with 10 ml of cell suspension. After 15 min centrifugation at 1500-1800×g, the plasma/media layer is aspirated and then the mononuclear cell layer is collected with a Pasteur pipette and transferred to a 15 ml conical centrifuge tube (Corning). Media is added to bring the volume to 15 ml, gently mix the cells by inversion and centrifuge at 300×g for 15 min. The PBMC pellet is resuspended in a small volume of media, the cells are counted and adjusted to 6×10^6 cells/ml.
For the cellular assay, 1.0 ml of the cell suspension is added to each well of a 24-well flat bottom tissue culture plate (Corning), 0.5 ml test compound dilution and 0.5 ml LPS solution (Sigma #L-3012; 20 ng/ml solution prepared in complete RPMI media; final LPS concentration 5 ng/ml). The 0.5 ml additions of test compound and LPS are usually sufficient to mix the contents of the wells. Three control mixtures are run per experiment, with either LPS alone, solvent vehicle control, and/or additional media to adjust the final culture volume to 2.0 ml. The cell cultures are incubated for 16-18 hr at 37° C. in the presence of 5% CO2.
At the end of the incubation period, cells are harvested and transferred to 15 ml conical centrifuge tubes. After centrifugation for 10 min at 200×g, supernatants are harvested and transferred to 1.5 ml Eppendorf tubes. It may be noted that the cell pellet may be utilized for a biochemical evaluation of pre-IL-1β and/or mature IL-1β content in cytosol extracts by Western blotting or ELISA with pre-IL-1β specific antisera.
PBMC are isolated and prepared as described above. Media (1.0 ml) is first added to wells followed by 0.5 ml of the PBMC suspension. After a one hour incubation, plates are gently shaken and nonadherent cells aspirated from each well. Wells are then gently washed three times with 1.0 ml of media and final resuspended in 1.0 ml media. The enrichment for adherent cells generally yields 2.5-3.0×10^5 cells per well. […]

[3] = In vivo bioavailability determination (oral dosing to rats); conditions: rat
Experimental: In vivo Bioavailability Determination
The drugs (10-100 mg/kg) were dosed orally to rats (10 mL/kg) in ethanol/PEG/water, β-cyclodextrin, labrosol/water or cremophor/water. Blood samples were drawn from the carotid artery at 0.25, 0.50, 1, 1.5, 2, 3, 4, 6, and 8 hours after dosing, centrifuged to separate plasma and stored at −70° C. until analyzed. Aldehyde concentrations were determined using HPLC/MS. Pharmacokinetic analysis of data was performed by non-linear regression using RStrip (MicroMath Software, UT). Drug availability values may be determined as follows: (AUC of drug after oral prodrug dosing/AUC of drug after i.v. dosing of drug)×(dose i.v./dose p.o.)×100%.

IL-1β = assay: LPS-induced IL-1β production in mice; assay type: in vivo, mouse; conditions: PO @ 100 mg/kg, compound given 1 hour relative to LPS challenge
Experimental: In vivo Acute Assay for Efficacy as Anti-inflammatory Agent
LPS-Induced IL-1β Production
Efficacy is evaluated in CD1 mice (n is 6 per condition, for example) challenged with LPS (20 mg/kg IP). The test compounds are prepared in olive oil:DMSO:ethanol (90:5:5) and administered by IP injection one hour after LPS. Blood is collected seven hours after LPS challenge. Serum IL-1β levels are measured by ELISA.
Compounds may also be administered by oral gavage to assess absorption.
We obtained inhibition data in Table 5 using the methods described in Example 12. Efficacy for Prodrugs in LPS-Induced IL-1β Production in Mice. Time of compound administration relative to time of LPS challenge was 1 hour. Dose of compound was PO @ 100 mg/kg.

Compound	IC50 [1]	Ki (ICE)	IC50 [2]	blood levels of drug when dosed orally ([3]; oral prodrug dosing)	Cmax ([3]; oral, dose 50 mg/kg, aldehyde (drug) concentration after prodrug dosing)	% Inhibition of IL-1β (IL-1β)
O=C[C@H](CC(=O)O)NC(=O)CN1C(=O)[C@@H](NC(=O)c2nccc3ccccc23)COc2ccccc21 [Compound 6a]	> 20 µM	22 nM	1000 nM			
O=C[C@H](CC(=O)O)NC(=O)CN1C(=O)[C@@H](NC(=O)c2c[nH]c3ccccc23)COc2ccccc21 [Compound 6c]	> 20 µM	20 nM	650 nM			
Cc1cc(C(=O)N[C@H]2CSc3ccccc3N(CC(=O)N[C@H](C=O)CC(=O)O)C2=O)cc(C)c1O [Compound 11a, (3S)-3-[(3S)-3-(3,5-Dimethyl-4-hydroxybenzoyl)amino-4-oxo-2,3,4,5-tetrahydro-5H-1,5-benzothiazepine-5-acetylamino]-4-oxo-butyric acid]	8.8 µM	7.5 nM				
O=C[C@H](CC(=O)O)NC(=O)CN1C(=O)[C@@H](NC(=O)c2nccc3ccccc23)CSc2ccccc21 [Compound 11b]	19 µM	14 nM	800 nM			
Cc1cc(C(=O)N[C@H]2CC(=O)c3ccccc3N(CC(=O)N[C@H](C=O)CC(=O)O)C2=O)cc(C)c1O [Compound 17a, (3S)-3-[(3S)-2,5-Dioxo-3-(3,5-dimethyl-4-hydroxybenzoyl)amino-2,3,4,5-tetrahydro-1H-1-benzazepine-1-acetylamino]-4-oxo-butyric acid]	3.2 µM	12 nM				
O=C[C@H](CC(=O)O)NC(=O)CN1C(=O)[C@@H](NC(=O)c2nccc3ccccc23)CC(=O)c2ccccc21 [Compound 17b, (3S)-3-[(3S)-2,5-Dioxo-3-(isoquinolin-1-oyl)amino-2,3,4,5-tetrahydro-1H-1-benzazopine-1-acetylamino]-4-oxo-butyric acid.]	> 20 µM	45 nM	1720 nM			
O=C[C@H](CC(=O)O)NC(=O)CN1C(=O)[C@@H](NC(=O)c2nccc3ccccc23)CS(=O)(=O)c2ccccc21 [Compound 19a]	9.5 µM	140 nM	770 nM			
(3S)-2,5-Dioxo-3-(Isoquinolin-3-oyl)amino-2,3,4,5-tetrahyo-1H-1-benzazepine-N-((2RS, 3S)-2-benzyloxy-5-oxo-tetrahydrofuran-3-yl)-1-acetamide [Compound 16b]				significant blood levels of drug	6.1 µg/mL	53%
(3S)-3-(Isoquinolin-1-oyl)amino-4-oxo-2,3,4,5-tetrahydo-5H-1,5-benzothiazepine-N-((2RS, 3S)-2-benzyloxy-5-oxo-tetrahydrofuran-3-yl)-5-acetamide [Compound 10b]						74%
(3S)-3-(Isoquinolin-1-oyl)amino-4-oxo-2,3,4,5-tetrahydro-5H-1,5-benzoxazepine-N-[(2RS, 3S)-2-benzyloxy-5-oxo-tetrahydrofuran-3-yl]-5-acetamide [Compound 5a]						58%
